Tests used:
Assay type in all cases: cell-based
Conditions in all cases: component A (XP or YS) alone
[1] = tested on: Escherichia coli ATCC25922 (大肠杆菌ATCC25922); test: Antibacterial action (MIC, FICI) against Escherichia coli ATCC25922 (Table 7)
[2] = tested on: Shigella flexneri 2aEW-10 (福氏志贺氏菌2aEW-10); test: Antibacterial action (MIC, FICI) against Shigella flexneri 2aEW-10 (Table 15)
[3] = tested on: Stenotrophomonas maltophilia NCTC 13637 (嗜麦芽窄食单胞菌NCTC 13637); test: Antibacterial action (MIC, FICI) against Stenotrophomonas maltophilia NCTC 13637 (Table 18)
[4] = tested on: Streptococcus intermedius ATCC27335 (中间链球菌ATCC27335); test: Antibacterial action (MIC, FICI) against Streptococcus intermedius ATCC27335 (Table 20)
[5] = tested on: Klebsiella pneumoniae NCTC 9632 (肺炎克雷伯菌NCTC 9632); test: Antibacterial action (MIC, FICI) against Klebsiella pneumoniae NCTC 9632 (Table 9)
[6] = tested on: Serratia marcescens IFO 3736 (黏质沙雷氏菌IFO 3736); test: Antibacterial action (MIC, FICI) against Serratia marcescens IFO 3736 (Table 10)
[7] = tested on: Bacteroides fragilis ATCC25285 (脆弱拟杆菌ATCC25285); test: Antibacterial action (MIC, FICI) against Bacteroides fragilis ATCC25285 (Table 26)
[8] = tested on: Providencia stuartii 57 (斯氏普罗威登斯菌57); test: Antibacterial action (MIC, FICI) against Providencia stuartii 57 (Table 12)
[9] = tested on: Clostridium perfringens ATCC13124 (产气荚膜梭状芽孢杆菌ATCC13124)
[10] = tested on: Micrococcus lysodeikticus 2665 (溶壁微球菌2665); test: Antibacterial action (MIC, FICI) against Micrococcus lysodeikticus 2665 (Table 4)
[11] = tested on: Propionibacterium acnes ATCC11828 (痤疮丙酸杆菌ATCC11828); test: Antibacterial action (MIC, FICI) against Propionibacterium acnes ATCC11828 (Table 21)

CCC(CC)O[C@@H]1C=C(C(=O)O)C[C@H](NC(C)=O)[C@H]1NC(CC(=O)O)C(=O)O (mixture of isomers) [化合物2P, ((1R,2R,6S)-6-乙酰氨基-4-羧基-2-(戊-3-基氧基)环己-3-烯-1-基)-DL-天门冬氨酸]
MIC_A [1]: 45 ng/mL | MIC_A [2]: 22 ng/mL | MIC_A [3]: 13 ng/mL | MIC_A [4]: 10 ng/mL

CCC(CC)O[C@@H]1C=C(C(=O)OC)C[C@H](NC(CC(=O)O)C(=O)O)[C@H]1NC(C)=O (mixture of isomers) [化合物3P, ((1S,5R,6R)-6-乙酰氨基-3-(甲氧基羰基)-5-(戊-3-基氧基)环己-3-烯-1-基)-DL-天门冬氨酸]
MIC_A [5]: 22 ng/mL | MIC_A [6]: 11 ng/mL | MIC_A [7]: 11 ng/mL

CCOC(=O)C1=C[C@@H](OC(CC)CC)[C@H](NC(C)=O)[C@@H](NC(CC(=O)O)C(=O)O)C1 (mixture of isomers) [化合物4P, ((1S,5R,6R)-6-乙酰氨基-3-(乙氧基羰基)-5-(戊-3-基氧基)环己-3-烯-1-基)-DL-天门冬氨酸]
MIC_A [1]: 17 ng/mL | MIC_A [8]: 34 ng/mL | MIC_A [9]: 36 ng/mL

CCOC(=O)C1=C[C@H](OC(CC)CC)[C@H](NC(C)=O)[C@@H](NC(CC(=O)O)C(=O)O)C1 (mixture of isomers) [化合物6P, ((1S,5S,6R)-6-乙酰氨基-3-(乙氧基羰基)-5-(戊-3-基氧基)环己-3-烯-1-基)-DL-天门冬氨酸]
MIC_A [10]: 26 ng/mL | MIC_A [6]: 7 ng/mL | MIC_A [3]: 17 ng/mL | MIC_A [4]: 28 ng/mL

CCOC(=O)C1=C[C@H](OC(CC)CC)[C@@H](NC(C)=O)[C@H](NC(CC(=O)O)C(=O)O)C1 (mixture of isomers) [化合物7P, ((1R,5S,6S)-6-乙酰氨基-3-(乙氧基羰基)-5-(戊-3-基氧基)环己-3-烯-1-基)-DL-天门冬氨酸]
MIC_A [1]: 27 ng/mL | MIC_A [5]: 25 ng/mL | MIC_A [2]: 60 ng/mL | MIC_A [11]: 10 ng/mL

CCOC(=O)C1=C[C@@H](OC(CC)CC)[C@@H](NC(C)=O)[C@@H](NC(CC(=O)O)C(=O)O)C1 (mixture of isomers) [化合物8P, ((1S,5R,6S)-6-乙酰氨基-3-(乙氧基羰基)-5-(戊-3-基氧基)环己-3-烯-1-基)-DL-天门冬氨酸]
MIC_A [3]: 41 ng/mL | MIC_A [9]: 28 ng/mL

CCOC(=O)C1=C[C@@H](OC(CC)CC)[C@H](NC(C)=O)[C@H](NC(CC(=O)O)C(=O)O)C1 (mixture of isomers) [化合物9P, ((1R,5R,6R)-6-乙酰氨基-3-(乙氧基羰基)-5-(戊-3-基氧基)环己-3-烯-1-基)-DL-天门冬氨酸]
MIC_A [10]: 18 ng/mL | MIC_A [6]: 49 ng/mL | MIC_A [8]: 29 ng/mL | MIC_A [4]: 9 ng/mL | MIC_A [7]: 16 ng/mL

CCOC(=O)C1=C[C@@H](OC(CC)CC)[C@H](NC(C)=O)[C@@H](NC(CC(=O)O)C(=O)O)C1 (mixture of isomers) [化合物1P, ((1S,5R,6R)-6-乙酰氨基-3-(乙氧基羰基)-5-(戊-3-基氧基)环己-3-烯-1-基)-DL-天门冬氨酸]
MIC_A [10]: 4 ng/mL | MIC_A [8]: 13 ng/mL | MIC_A [11]: 18 ng/mL | MIC_A [9]: 12 ng/mL

CCC(CC)O[C@@H]1C=C(C(=O)O)C[C@H](NC(CC(=O)O)C(=O)O)[C@H]1N (mixture of isomers) [化合物11P, ((1S,5R,6R)-6-氨基-3-羧基-5-(戊-3-基氧基)环己-3-烯-1-基)-DL-天门冬氨酸]
MIC_A [1]: 7 ng/mL | MIC_A [5]: 22 ng/mL | MIC_A [8]: 17 ng/mL | MIC_A [3]: 50 ng/mL | MIC_A [9]: 22 ng/mL

CCOC(=O)C1=C[C@@H](OC(CC)CC)[C@H](N)[C@@H](NC(CC(=O)O)C(=O)O)C1 (mixture of isomers) [化合物12P, ((1S,5R,6R)-6-氨基-3-(乙氧基羰基)-5-(戊-3-基氧基)环己-3-烯-1-基)-DL-天门冬氨酸]
MIC_A [10]: 30 ng/mL | MIC_A [6]: 47 ng/mL | MIC_A [4]: 25 ng/mL

CCOC(=O)C1=C[C@@H](O)[C@H](NC(C)=O)[C@@H](NC(CC(=O)O)C(=O)O)C1 (mixture of isomers) [化合物13P, ((1S,5R,6R)-6-乙酰氨基-3-(乙氧基羰基)-5-羟基环己-3-烯-1-基)-DL-天门冬氨酸]
MIC_A [10]: 27 ng/mL | MIC_A [5]: 55 ng/mL | MIC_A [8]: 54 ng/mL | MIC_A [4]: 22 ng/mL

CCOC(=O)C1=C[C@@H](O)[C@H](N)[C@@H](NC(CC(=O)O)C(=O)O)C1 (mixture of isomers) [化合物14P, ((1S,5R,6R)-6-氨基-3-(乙氧基羰基)-5-羟基环己-3-烯-1-基)-DL-天门冬氨酸]
MIC_A [6]: 46 ng/mL | MIC_A [11]: 18 ng/mL

CCC(CC)O[C@H]1C=C(C(=O)O)C[C@@H](NC(CC(=O)O)C(=O)O)[C@@H]1N (mixture of isomers) [化合物16P, ((1R,5S,6S)-6-氨基-3-羧基-5-(戊-3-基氧基)环己-3-烯-1-基)-DL-天门冬氨酸]
MIC_A [5]: 15 ng/mL

CCOC(=O)C1=C[C@H](OC(CC)CC)[C@@H](N)[C@H](NC(CC(=O)O)C(=O)O)C1 (mixture of isomers) [化合物17P, ((1R,5S,6S)-6-氨基-3-(乙氧基羰基)-5-(戊-3-基氧基)环己-3-烯-1-基)-DL-天门冬氨酸]
MIC_A [1]: 22 ng/mL | MIC_A [2]: 30 ng/mL | MIC_A [3]: 16 ng/mL | MIC_A [11]: 27 ng/mL | MIC_A [9]: 21 ng/mL

CCOC(=O)C1=C[C@@H](OC(C)CC)[C@H](NC(C)=O)[C@@H](NC(CC(=O)O)C(=O)O)C1 (mixture of isomers) [化合物19P, ((1S,5R,6R)-6-乙酰氨基-5-(sec-丁氧基)-3-(乙氧基羰基)环己-3-烯-1-基)-DL-天门冬氨酸]
MIC_A [6]: 13 ng/mL | MIC_A [8]: 17 ng/mL | MIC_A [4]: 11 ng/mL

CCOC(=O)C1=C[C@@H](OC(C)C)[C@H](NC(C)=O)[C@@H](NC(CC(=O)O)C(=O)O)C1 (mixture of isomers) [化合物20P, ((1S,5R,6R)-6-乙酰氨基-3-(乙氧基羰基)-5-异丙氧基环己-3-烯-1-基)-DL-天门冬氨酸]
MIC_A [1]: 19 ng/mL | MIC_A [3]: 36 ng/mL | MIC_A [11]: 18 ng/mL

CCOC(=O)C1=C[C@@H](OC(CC)CC)[C@H](NC(C)=O)[C@@H](N)C1 [化合物1S, 乙基(3R,4R,5S)-4-乙酰氨基-5-氨基-3-(戊-3-基氧基)环己-1-烯-1-羧酸酯]
MIC_A [10]: 300 ng/mL | MIC_A [8]: 1178 ng/mL | MIC_A [11]: 633 ng/mL | MIC_A [9]: 504 ng/mL

CCC(CC)O[C@@H]1C=C(C(=O)O)C[C@H](NC(C)=O)[C@H]1N [化合物2S, (3R,4R,5S)-5-乙酰氨基-4-氨基-3-(戊-3-基氧基)环己-1-烯-1-羧酸]
MIC_A [1]: 720 ng/mL | MIC_A [2]: 345 ng/mL | MIC_A [3]: 879 ng/mL | MIC_A [4]: 493 ng/mL

CCC(CC)O[C@@H]1C=C(C(=O)OC)C[C@H](N)[C@H]1NC(C)=O [化合物3S, 甲基(3R,4R,5S)-4-乙酰氨基-5-氨基-3-(戊-3-基氧基)环己-1-烯-1-羧酸酯]
MIC_A [5]: 424 ng/mL | MIC_A [6]: 456 ng/mL | MIC_A [7]: 362 ng/mL

CCOC(=O)C1=C[C@@H](OC(CC)CC)[C@H](NC(C)=O)[C@@H](N)C1 [化合物4S, 乙基(3R,4R,5S)-4-乙酰氨基-5-氨基-3-(戊-3-基氧基)环己-1-烯-1-羧酸酯]
MIC_A [1]: 456 ng/mL | MIC_A [8]: 581 ng/mL | MIC_A [9]: 762 ng/mL

CCOC(=O)C1=C[C@H](OC(CC)CC)[C@H](NC(C)=O)[C@@H](N)C1 [化合物6S, 乙基(3S,4R,5S)-4-乙酰氨基-5-氨基-3-(戊-3-基氧基)环己-1-烯-1-羧酸酯]
MIC_A [10]: 556 ng/mL | MIC_A [6]: 445 ng/mL | MIC_A [3]: 473 ng/mL | MIC_A [4]: 521 ng/mL

CCOC(=O)C1=C[C@H](OC(CC)CC)[C@@H](NC(C)=O)[C@H](N)C1 [化合物7S, 乙基(3S,4S,5R)-4-乙酰氨基-5-氨基-3-(戊-3-基氧基)环己-1-烯-1-羧酸酯]
MIC_A [1]: 484 ng/mL | MIC_A [5]: 376 ng/mL | MIC_A [2]: 1145 ng/mL | MIC_A [11]: 461 ng/mL

CCOC(=O)C1=C[C@@H](OC(CC)CC)[C@@H](NC(C)=O)[C@@H](N)C1 [化合物8S, 乙基(3R,4S,5S)-4-乙酰氨基-5-氨基-3-(戊-3-基氧基)环己-1-烯-1-羧酸酯]
MIC_A [3]: 800 ng/mL | MIC_A [9]: 483 ng/mL

CCC(CC)O[C@@H]1C=C(C(=O)O)C[C@H](N)[C@H]1N [化合物11S, (3R,4R,5S)-4,5-二氨基-3-(戊-3-基氧基)环己-1-烯-1-羧酸]
MIC_A [1]: 659 ng/mL | MIC_A [5]: 650 ng/mL | MIC_A [8]: 1106 ng/mL | MIC_A [3]: 774 ng/mL | MIC_A [9]: 482 ng/mL

CCOC(=O)C1=C[C@@H](OC(CC)CC)[C@H](N)[C@@H](N)C1 [化合物12S, 乙基(3R,4R,5S)-4,5-二氨基-3-(戊-3-基氧基)环己-1-烯-1-羧酸酯]
MIC_A [10]: 1027 ng/mL | MIC_A [6]: 691 ng/mL | MIC_A [4]: 406 ng/mL

CCOC(=O)C1=C[C@@H](O)[C@H](NC(C)=O)[C@@H](N)C1 [化合物13S, 乙基(3R,4R,5S)-4-乙酰氨基-5-氨基-3-羟基环己-1-烯-1-羧酸酯]
MIC_A [10]: 914 ng/mL | MIC_A [5]: 1081 ng/mL | MIC_A [8]: 1021 ng/mL | MIC_A [4]: 655 ng/mL

CCOC(=O)C1=C[C@@H](O)[C@H](N)[C@@H](N)C1 [化合物14S, 乙基(3R,4R,5S)-4,5-二氨基-3-羟基环己-1-烯-1-羧酸酯]
MIC_A [6]: 1102 ng/mL | MIC_A [11]: 701 ng/mL

CCC(CC)O[C@H]1C=C(C(=O)O)C[C@@H](N)[C@@H]1N [化合物16S, (3S,4S,5R)-4,5-二氨基-3-(戊-3-基氧基)环己-1-烯-1-羧酸]
MIC_A [5]: 1179 ng/mL

CCOC(=O)C1=C[C@H](OC(CC)CC)[C@@H](N)[C@H](N)C1 [化合物17S, 乙基(3S,4S,5R)-4,5-二氨基-3-(戊-3-基氧基)环己-1-烯-1-羧酸酯]
MIC_A [1]: 683 ng/mL | MIC_A [2]: 929 ng/mL | MIC_A [3]: 447 ng/mL | MIC_A [11]: 969 ng/mL | MIC_A [9]: 684 ng/mL

CCOC(=O)C1=C[C@@H](OC(C)CC)[C@H](NC(C)=O)[C@@H](N)C1 (stereo partly drawn) [化合物19S, 乙基(3R,4R,5S)-4-乙酰氨基-5-氨基-3-(sec-丁氧基)环己-1-烯-1-羧酸酯]
MIC_A [6]: 1016 ng/mL | MIC_A [8]: 823 ng/mL | MIC_A [4]: 310 ng/mL

CCOC(=O)C1=C[C@@H](OC(C)C)[C@H](NC(C)=O)[C@@H](N)C1 [化合物20S, 乙基(3R,4R,5S)-4-乙酰氨基-5-氨基-3-异丙氧基环己-1-烯-1-羧酸酯]
MIC_A [1]: 704 ng/mL | MIC_A [3]: 1079 ng/mL | MIC_A [11]: 771 ng/mL
